≈ marks a conversion by molar mass, not a printed value. Where two headings read alike, the source gives them in different places.
Key:
[1] = tested on: axenically grown L. donovani amastigotes; settings: literature value, no reference given; read-out: IC50 against axenically grown L. donovani amastigotes; cited from earlier work
[2] = tested on: L. braziliensis promastigotes; experiment: Leishmanicidal activity on L. braziliensis promastigotes (resazurin); format: cell-based, Leishmania braziliensis; settings: Leishmania braziliensis, 48 h, read-out: Leishmanicidal Activity on Promastigotes, L. braziliensis, IC50
Description: (§1) Culture of L. braziliensis (MHOM/BR/75/M2904), and L. infantum (MHOM/FR/91/LEM2259V) was obtained from the Facultad de Farmacia (Universidad Complutense de, Madrid, Spain). The maintenance of the strains, the form of cultivation, and the isolation of shape promastigota were performed following the procedures described by Roldos et al.. The promastigotes were grown at 22 °C in Schneider’s Drosophila medium supplemented with 20% FBS. The assay was performed using a modification of a previous method. Promastigotes (2 × 10^6 parasites/well) were cultured in 96-well plastic plates. Compounds were dissolved in dimethylsulfoxide (DMSO). Different dilutions of the compounds with a final volume up to 200 µL were added. After 48 h at 26 °C, 20 µL of a 2 mM resazurin solution was added, and the oxidation-reduction was quantified at 570 and 600 nm. The solution of resazurin was prepared at 2.5 mM in phosphate buffered solution (PBS), pH 7.4, and filtered through 0.22 µm prior to use. All tests were carried out in triplicate. Resazurin sodium salt was obtained from Sigma-Aldrich (St. Louis, MO, USA) and stored at 4 °C protected from light. The efficacy of each compound was estimated by calculating the IC50 values.

[3] = tested on: L. infantum promastigotes; experiment: Leishmanicidal activity on L. infantum promastigotes (resazurin); format: cell-based, Leishmania infantum; settings: Leishmania infantum, 48 h, read-out: Leishmanicidal Activity on Promastigotes, L. infantum, IC50
Description: as §1

T. cruzi epimastigotes = experiment: Antiepimastigote activity, T. cruzi CL-B5 lacZ (CPRG); format: cell-based, Trypanosoma cruzi; settings: Trypanosoma cruzi, clone CL-B5, 72 h
Description: For in vitro studies of T. cruzi, the clone CL-B5 was used (donated by Faculty of Pharmacy, Complutense University, Madrid, Spain). Parasites were stably transfected with the Escherichia coli β-galactosidase gene (lacZ). Epimastigotes were grown at 28 °C in liver infusion tryptose broth (Difco, Detroit, MI, USA) with 10% fetal bovine serum (FBS) (Gibco, Carlsbad, CA, USA), penicillin (Ern S.A., Barcelona, Spain), and streptomycin (Reig Jofré S.A., Barcelona, Spain), as described previously, and harvested during the exponential growth phase. Briefly, the screening assay was performed in 96-well microplates (Sarstedt, Inc., Newton, NC, USA) with cultures that had not reached the stationary phase. Epimastigotes were seeded at 2 × 10^5 parasites/mL in 200 µL growth media. The plates were then incubated with the respective compounds at 28 °C for 72 h; afterwards, 50 µL of chlorophenol red-β-D-galactopyranoside (CPRG) solution was added, resulting in a final concentration of 200 µM. The plates were incubated at 37 °C for an additional 4 h and then read at 595 nm. Each concentration was tested in triplicate. The efficacy of each compound was estimated by calculating the IC50 values. These values were calculated by the sigmoidal dose–response curve adjustment using the statistical software program Graph-Pad Prims 3.0 (GraphPhad, San Diego, CA, USA). Benznidazole was used as the reference drug.

[4] = Cytotoxicity on NCTC-Clone 929 fibroblasts (resazurin); format: cell-based; settings: mouse
Description: The cell line used was NCTC-Clone 929, which was grown in Minimal Essential Medium (Sigma) supplemented with 10% heat-inactivated FBS, penicillin G (100 U/mL), and streptomycin (100 µg/mL). Cell cultures were maintained at 37 °C in a humidified 5% CO2 atmosphere. The procedure for cell viability measurement was evaluated with resazurin by a colorimetric method. The cells were plated in 96-microtiter plates at 3 × 10^4 cells per well in a 100 µL growth medium. The cells were grown overnight at 37 °C, 5% CO2. Thereafter, the medium was removed and the compounds were added in a 200 µL medium for 24 h. After incubation, 20 µL of a 2 mM resazurin solution was added to each well. The plates were incubated for 3 h to allow optimal oxidation-reduction. The reduction of resazurin was determined by dual wavelength absorbance measurement at 490 and 595 nm. Background was subtracted. Each concentration was assayed three times. Medium and drug controls were used in each test as blanks.

## COc1c(C(C)C)cc2c(c1O)[C@@]1(C(=O)O)CCCC(C)(C)[C@@H]1CC2 [12-methoxycarnosic acid]
[1]
  IC50: 750 nM

## COc1ccc(-n2cc(CCCCC(=O)OC[C@]3(C)CCC[C@]4(C)c5ccc(C(C)C)cc5CCC34)nn2)cc1 (stereo partly drawn) [Compound 12]
[2]
  IC50: > 256 µg/mL
[3]
  IC50: > 256 µg/mL
T. cruzi epimastigotes
  IC50: > 256 µg/mL
[4]
  IC50 at 24 h: > 256 µg/mL

## CC(C)c1ccc2c(c1)CCC1[C@](C)(COC(=O)CCc3cn(Cc4cccc(Cl)c4)nn3)CCC[C@]21C (stereo partly drawn) [Compound 13]
[2]; promastigotes
  IC50: 242 µg/mL (≈ 453 µM)
[3]
  IC50: > 256 µg/mL
T. cruzi epimastigotes
  IC50: > 256 µg/mL
[4]
  IC50 at 24 h: > 256 µg/mL

## CC(C)c1ccc2c(c1)CCC1[C@](C)(COC(=O)CCCCc3cn(Cc4cccc(Cl)c4)nn3)CCC[C@]21C (stereo partly drawn) [Compound 14]
[2]
  IC50: > 256 µg/mL
[3]
  IC50: > 256 µg/mL
T. cruzi epimastigotes
  IC50: > 256 µg/mL
[4]
  IC50 at 24 h: > 256 µg/mL

## Cc1ccc(S(=O)(=O)n2cc(CCC(=O)OC[C@]3(C)CCC[C@]4(C)c5ccc(C(C)C)cc5CCC34)nn2)cc1 (stereo partly drawn) [Compound 15]
[2]; promastigotes
  IC50: 89 µg/mL (≈ 158 µM)
[3]; promastigotes
  IC50: 53 µg/mL (≈ 94 µM)
T. cruzi epimastigotes
  IC50: 69 µg/mL (≈ 122 µM)
[4]
  IC50 at 24 h: 232 µg/mL (≈ 412 µM)

## Cc1ccc(S(=O)(=O)n2cc(CCCCC(=O)OC[C@]3(C)CCC[C@]4(C)c5ccc(C(C)C)cc5CCC34)nn2)cc1 (stereo partly drawn) [Compound 16]
[2]; promastigotes
  IC50: 71 µg/mL (≈ 120 µM)
[3]; promastigotes
  IC50: 73 µg/mL (≈ 123 µM)
T. cruzi epimastigotes
  IC50: 199 µg/mL (≈ 336 µM)
[4]
  IC50 at 24 h: 129 µg/mL (≈ 218 µM)

## C#CCCC(=O)O[C@H]1CC[C@@]2(C)C(CC[C@]3(C)C2CC=C2[C@@H]4CC(C)(C)CC[C@]4(C(=O)O)CC[C@]23C)C1(C)C (stereo partly drawn) [Compound 17]
[2]; promastigotes
  IC50: > 256 µg/mL
[3]; promastigotes
  IC50: > 256 µg/mL
T. cruzi epimastigotes
  IC50: 252 µg/mL (≈ 469 µM)
[4]
  IC50 at 24 h: 196 µg/mL (≈ 365 µM)

## C#CCCC(=O)O[C@H]1CC[C@@]2(C)C(CC[C@]3(C)C2CC=C2[C@@H]4CC(C)(C)CC[C@]4(C(=O)OC)CC[C@]23C)C1(C)C (stereo partly drawn) [Compound 18]
[2]
  IC50: > 256 µg/mL
[3]
  IC50: > 256 µg/mL
T. cruzi epimastigotes
  IC50: > 256 µg/mL
[4]
  IC50 at 24 h: > 256 µg/mL

## C#CCCCC(=O)O[C@H]1CC[C@@]2(C)C(CC[C@]3(C)C2CC=C2[C@@H]4CC(C)(C)CC[C@]4(C(=O)O)CC[C@]23C)C1(C)C (stereo partly drawn) [Compound 19]
[2]; promastigotes
  IC50: 109 µg/mL (≈ 198 µM)
[3]; promastigotes
  IC50: 155 µg/mL (≈ 281 µM)
T. cruzi epimastigotes
  IC50: > 256 µg/mL
[4]
  IC50 at 24 h: > 256 µg/mL

## C#CCCCC(=O)O[C@H]1CC[C@@]2(C)C(CC[C@]3(C)C2CC=C2[C@@H]4CC(C)(C)CC[C@]4(C(=O)OC)CC[C@]23C)C1(C)C (stereo partly drawn) [Compound 20]
[2]
  IC50: > 256 µg/mL
[3]
  IC50: > 256 µg/mL
T. cruzi epimastigotes
  IC50: > 256 µg/mL
[4]
  IC50 at 24 h: > 256 µg/mL

## CC1(C)CC[C@]2(C(=O)O)CC[C@]3(C)C(=CCC4[C@@]5(C)CC[C@H](OC(=O)CCc6cn(-c7ccccc7)nn6)C(C)(C)C5CC[C@]43C)[C@@H]2C1 (stereo partly drawn) [Compound 21]
[2]
  IC50: > 256 µg/mL
[3]
  IC50: > 256 µg/mL
T. cruzi epimastigotes
  IC50: > 256 µg/mL
[4]
  IC50 at 24 h: > 256 µg/mL

## COC(=O)[C@]12CCC(C)(C)C[C@H]1C1=CCC3[C@@]4(C)CC[C@H](OC(=O)CCc5cn(-c6ccccc6)nn5)C(C)(C)C4CC[C@@]3(C)[C@]1(C)CC2 (stereo partly drawn) [Compound 22]
[2]
  IC50: > 256 µg/mL
[3]
  IC50: > 256 µg/mL
T. cruzi epimastigotes
  IC50: > 256 µg/mL
[4]
  IC50 at 24 h: > 256 µg/mL

Source: PMC6155273, “Antiprotozoal Activity of Triazole Derivatives of Dehydroabietic Acid and Oleanolic Acid” (Molecules : A Journal of Synthetic Chemistry and Natural …, 2017)
